This is an account of results in ChEMBL document CHEMBL4376810, “Bioactive Secondary Metabolites from Bacillus subtilis: A Comprehensive Review” (2019).

For assay [1], the system named is Staphylococcus aureus. The assay can be described thus: Antibacterial activity against Staphylococcus aureus. In kind it is functional.
The test system of the next assay is Micrococcus luteus. The assay can be described thus: Antibacterial activity against Micrococcus luteus incubated for 24 hrs by broth microdilution method. It counts as functional. In general terms: Dilution methods test growth across graded concentrations, often in twofold steps.
Assay [2] has as its system Staphylococcus aureus. The assay can be described thus: Antibacterial activity against methicillin-resistant Staphylococcus aureus incubated for 24 hrs by broth microdilution method. In kind it is functional.
The subject of the next assay is Bacillus pumilus. The assay can be described thus: Antibacterial activity against Bacillus pumilus incubated for 24 hrs by broth microdilution method. In kind it is functional.
For assay [3], the system named is Staphylococcus aureus. The assay can be described thus: Antibacterial activity against oxacillin-resistant Staphylococcus aureus by broth microdilution method. In kind it is functional.
In another assay the test system is Streptococcus pneumoniae. The assay can be described thus: Antibacterial activity against Streptococcus pneumoniae by broth microdilution method. In kind it is functional.
Assay [4] has as its system Staphylococcus epidermidis. The assay can be described thus: Antibacterial activity against Staphylococcus epidermidis by broth microdilution method. In kind it is functional.
In assay [5] the test system is Staphylococcus aureus. The assay can be described thus: Antibacterial activity against methicillin-resistant Staphylococcus aureus. In kind it is functional.
A further assay deals with Rhizoctonia solani. The assay can be described thus: Antifungal activity against Rhizoctonia solani assessed as inhibition of fungal growth incubated for 48 hrs by standard broth dilution assay. It counts as functional.
A further assay concerns Botrytis cinerea. The assay can be described thus: Antifungal activity against Botrytis cinerea assessed as inhibition of fungal growth incubated for 48 hrs by standard broth dilution assay. It counts as functional.
A further assay deals with Colletotrichum acutatum. The assay can be described thus: Antifungal activity against Colletotrichum acutatum assessed as inhibition of fungal growth incubated for 48 hrs by standard broth dilution assay. It counts as functional.
The next assay has as its system Morganella morganii. The assay can be described thus: Antibacterial activity against streptomycin-resistant Morganella morganii incubated for 18 hrs by agar dilution assay. In kind it is functional. (In agar dilution the substance is mixed into plates at graded concentrations.)
For another assay, the system named is Salmonella typhimurium. The assay can be described thus: Antibacterial activity against Salmonella typhimurium incubated for 18 hrs by agar dilution assay. In kind it is functional, Salmonella enterica subsp. enterica serovar Typhimurium. The following applies: Salmonella enterica.
In assay [6] the test system is Staphylococcus aureus. The assay can be described thus: Antibacterial activity against methicillin-resistant Staphylococcus aureus incubated for 18 hrs by agar dilution assay. In kind it is functional.

Values after ≈ are worked out from the molar mass of the structure shown. Non-standard residues stand in square brackets, D forms with d. Residues, ends and D or L forms follow the SMILES beside them. *: point of attachment. Tridecanoyl(3R-OH,11-Me) = CCC(C)CCCCCCC[C@@H](O)CC(=O)*; X1 = CCC(C)CC(C)CCCCC[C@@H](O)CC(=O)*

Turning to `CC(C)C[C@H](NC(=O)[C@@H](O)[C@@H](O)[C@@H](N)CC(N)=O)[C@@H]1Cc2cccc(O)c2C(=O)O1`, the minimal inhibitory concentration (MIC) – broadly, the lowest concentration found to suppress growth – against Staphylococcus aureus [1] is < 1 µg/mL.
Consider `CC1=CC2C(OC3OC(C)C(O)C(O)C3O)CCCC2C2C(=O)OC(=O)/C(C)=C3/CC(O)C/C3=C/2C1/C=C/C=C/C=C(\C)CC(C)CC(O)C(C)C(=O)O` (stereo not drawn), for which the minimal inhibitory concentration (MIC) with Micrococcus luteus, in the assay with Staphylococcus aureus [2] and against Bacillus pumilus was < 7 µg/mL each time.
Take `CC(C)C[C@H](NC(=O)[C@H]1OCN[C@@H](CC(N)=O)[C@@H]1O)[C@@H]1Cc2cccc(O)c2C(=O)O1`: the MIC (in the assay on Staphylococcus aureus [3]; in the assay with Streptococcus pneumoniae; in assay [4]) was 0.5 to 2 µg/mL (≈ 1.15 to 4.59 µM) each time.
`CCCCCCCCCCCCCC(=O)N[C@@H]1C(=O)N[C@H](CCC(N)=O)C(=O)N[C@@H](CC(=O)O)C(=O)NCC(=O)N[C@@H](CC(N)=O)C(=O)N[C@@H](CC(=O)O)C(=O)NCC(=O)N[C@@H](Cc2ccc(O)cc2)C(=O)N[C@@H](C(C)C)C(=O)OC1C` (stereo partly drawn) returned an MIC against Staphylococcus aureus [5] of 20 µg/mL (≈ 17.2 µM).
Turning to `CCC(C)CCCCCCC[C@@H](O)CC(=O)N[C@@H](CCC(=O)O)C(=O)N[C@@H](CC(C)C)C(=O)N[C@@H](CC(C)C)C(=O)N[C@@H](C(=O)N[C@@H](CC(=O)O)C(=O)N[C@@H](CC(C)C)C(=O)N[C@@H](CC(C)C)C(=O)O)C(C)C` (stereo partly drawn) ({Tridecanoyl(3R-OH,11-Me)}-ELL[dV]DLL-OH), the minimum inhibitory concentration (MIC) with Rhizoctonia solani, with Botrytis cinerea and in the assay on Colletotrichum acutatum was 4 to 8 µg/mL (≈ 3.84 to 7.69 µM) in each case.
With `CCCCCCCCCCCC(=O)N[C@@H]1C(=O)N[C@H](CCC(N)=O)C(=O)N[C@@H](CC(=O)O)C(=O)NCC(=O)N[C@@H](CC(N)=O)C(=O)N[C@@H](CC(=O)O)C(=O)NCC(=O)N[C@@H](Cc2ccc(O)cc2)C(=O)N[C@@H](C(C)C)C(=O)OC1C` (stereo partly drawn), it took 20 µg/mL (≈ 17.7 µM) to inhibit growth in the assay on Staphylococcus aureus [5] (MIC).
As for `CC1=CC2C(OC3OC(C)C(O)C(=O)C3O)CCCC2C2C(=O)OC(=O)/C=C3/CC(O)C/C3=C/2C1/C=C/C=C/C=C(\C)CC(C)CC(O)C(C)C(=O)O` (stereo not drawn), the MIC in the assay with Micrococcus luteus, against Staphylococcus aureus [2] and in the assay on Bacillus pumilus was < 7 µg/mL in each case.
Consider `C=C/C=C(\C)CCC1CCC/C=C\C=C(\C)C(OP(=O)(O)O)CCC\C=C/C=C\C=C\C=C\C(O)C(C)C(=C)CC(=O)O1` (stereo not drawn), for which the MIC in the assay with Morganella morganii, in the assay with Salmonella typhimurium and against Staphylococcus aureus [6] was 2 to 32 µg/mL (≈ 3.25 to 52.1 µM) each time.
Turning to `CC1=CC2C(OC3OC(C)C(O)C(=O)C3O)CCCC2C2C(=O)OC(=O)/C(C)=C3/CC(O)C/C3=C/2C1/C=C/C=C/C=C(\C)CC(C)CC(O)C(C)C(=O)O` (stereo not drawn), the MIC against Micrococcus luteus, against Staphylococcus aureus [2] and in the assay on Bacillus pumilus was < 7 µg/mL each time.
On to `C=C/C=C(\C)CCC1CCC/C=C\C=C(\C)C(OP(=O)(O)O)CCC\C=C/C=C\C=C\C=C\CC(C)C(=C)CC(=O)O1` (stereo not drawn), for which the MIC in the assay with Morganella morganii, in the assay on Salmonella typhimurium and in the assay with Staphylococcus aureus [6] was 2 to 32 µg/mL (≈ 3.34 to 53.4 µM) each time.
As to `CCC(C)CC(C)CCCCC[C@@H](O)CC(=O)N[C@@H](CCC(=O)O)C(=O)N[C@@H](CC(C)C)C(=O)N[C@@H](CC(C)C)C(=O)N[C@@H](C(=O)N[C@@H](CC(=O)O)C(=O)N[C@@H](CC(C)C)C(=O)N[C@@H](CC(C)C)C(=O)O)C(C)C` (stereo partly drawn) (X1-ELL[dV]DLL-OH), the MIC with Rhizoctonia solani, with Botrytis cinerea and in the assay with Colletotrichum acutatum was 4 to 8 µg/mL (≈ 3.79 to 7.59 µM) throughout.
Molecule `CCCCCCCCCCCCC(=O)N[C@@H]1C(=O)N[C@H](CCC(N)=O)C(=O)N[C@@H](CC(=O)O)C(=O)NCC(=O)N[C@@H](CC(N)=O)C(=O)N[C@@H](CC(=O)O)C(=O)NCC(=O)N[C@@H](Cc2ccc(O)cc2)C(=O)N[C@@H](C(C)C)C(=O)OC1C` (stereo partly drawn) returned an MIC in the assay with Staphylococcus aureus [5] of 20 µg/mL (≈ 17.4 µM).
